Source: ChEMBL document CHEMBL3593195, “Endophytic Diaporthe sp. LG23 Produces a Potent Antibacterial Tetracyclic Triterpenoid” (2015)
Converted amounts (≈) assume the structure as drawn.

Columns and labels:
Assay type in all cases: functional
[1] = tested on: Pseudomonas aeruginosa; experiment: Antibacterial activity against Pseudomonas aeruginosa DSM 22644 incubated for 24 hrs by disk diffusion method
[2] = tested on: Staphylococcus aureus; experiment: Antibacterial activity against Staphylococcus aureus DSM 799 incubated for 24 hrs by disk diffusion method
[3] = tested on: Escherichia coli; experiment: Antibacterial activity against Escherichia coli DSM 682 incubated for 24 hrs by disk diffusion method
[4] = tested on: Bacillus subtilis; experiment: Antibacterial activity against Bacillus subtilis DSM 1088 incubated for 24 hrs by disk diffusion method
[5] = tested on: Streptococcus pyogenes; experiment: Antibacterial activity against Streptococcus pyogenes DSM 11728 incubated for 24 hrs by disk diffusion method

In the case of `CO[C@]12CC[C@]3(C)[C@@H]([C@H](C)/C=C/[C@H](C)C(C)C)CC[C@H]3C1=CC(=O)O2`, the MIC ([1]; DSM 22644, 24 h) was over 10 µg/mL, the MIC ([2]; DSM 799, 24 h) was over 10 µg/mL and the MIC ([3]; DSM 682, 24 h) was over 10 µg/mL. The MIC ([4]; DSM 1088, 24 h) was over 10 µg/mL and the MIC ([5]; DSM 11728, 24 h) was over 10 µg/mL.
`CC(C)[C@@H](C)/C=C/[C@@H](C)[C@H]1CC[C@@]2(O)C3=CC(=O)[C@@]4(O)C[C@@H](O)CC[C@]4(C)[C@@]3(O)CC[C@]12C` was tested, and the MIC ([1]; DSM 22644, 24 h) was over 10 µg/mL, the MIC ([2]; DSM 799, 24 h) was over 10 µg/mL and the MIC ([3]; DSM 682, 24 h) was over 10 µg/mL. For the same compound, the MIC ([4]; DSM 1088, 24 h) was over 10 µg/mL and the MIC ([5]; DSM 11728, 24 h) was over 10 µg/mL.
`CC(C)[C@@H](C)/C=C/[C@@H](C)[C@H]1CC[C@H]2/C(=C/C(=O)O[C@]3(C)CCC=CC3=O)C(=O)CC[C@]12C` was tested, and the MIC ([1]; DSM 22644, 24 h) was over 10 µg/mL, the MIC ([2]; DSM 799, 24 h) was 1 µg/mL (≈ 2.27 µM) and the MIC ([3]; DSM 682, 24 h) was over 10 µg/mL. The MIC ([4]; DSM 1088, 24 h) was 5 µg/mL (≈ 11.3 µM) and the MIC ([5]; DSM 11728, 24 h) was over 10 µg/mL.
`CC(C)[C@@H](C)/C=C/[C@@H](C)[C@H]1CCC2C3=CC(=O)O[C@@]3(O)CC[C@@]21C` (stereo not given in full) [DEMETHYLINCISTEROL A3] showed an MIC ([1]; DSM 22644, 24 h) of over 10 µg/mL, an MIC ([2]; DSM 799, 24 h) of over 10 µg/mL and an MIC ([3]; DSM 682, 24 h) of over 10 µg/mL. It also gave an MIC ([4]; DSM 1088, 24 h) of over 10 µg/mL and an MIC ([5]; DSM 11728, 24 h) of over 10 µg/mL.
Compound `CC(C)[C@@H](C)/C=C/[C@@H](C)[C@H]1CC[C@H]2C3=C[C@H](O)[C@@]4(O)C[C@@H](O)CC[C@]4(C)C3=CC[C@]12C` has an MIC ([1]; DSM 22644, 24 h) of over 10 µg/mL, an MIC ([2]; DSM 799, 24 h) of over 10 µg/mL and an MIC ([3]; DSM 682, 24 h) of over 10 µg/mL. The MIC ([4]; DSM 1088, 24 h) was over 10 µg/mL and the MIC ([5]; DSM 11728, 24 h) was over 10 µg/mL.
Compound `CN[C@@H]1[C@H](O[C@H]2[C@H](O[C@H]3[C@H](O)[C@@H](O)[C@H](N=C(N)N)[C@@H](O)[C@@H]3N=C(N)N)O[C@@H](C)[C@]2(O)C=O)O[C@@H](CO)[C@H](O)[C@H]1O` [STREPTOMYCIN] has an MIC ([1]; DSM 22644, 24 h) of 10 µg/mL (≈ 17.2 µM), an MIC ([2]; DSM 799, 24 h) of 5 µg/mL (≈ 8.6 µM) and an MIC ([3]; DSM 682, 24 h) of 1 µg/mL (≈ 1.72 µM). For the same compound, the MIC ([4]; DSM 1088, 24 h) was 5 µg/mL (≈ 8.6 µM) and the MIC ([5]; DSM 11728, 24 h) was over 10 µg/mL.
With GENTAMICIN the MIC [1] was 1 µg/mL, the MIC [2] was 1 µg/mL and the MIC [3] was 1 µg/mL. For the same compound, the MIC [4] was 1 µg/mL and the MIC [5] was 10 µg/mL.
With `CC(C)[C@@H](C)/C=C/[C@@H](C)[C@H]1CC[C@H]2C3=CC(=O)[C@@]4(O)C[C@@H](O)CC[C@]4(C)[C@@]3(O)CC[C@]12C` the MIC ([1]; DSM 22644, 24 h) was over 10 µg/mL, the MIC ([2]; DSM 799, 24 h) was over 10 µg/mL and the MIC ([3]; DSM 682, 24 h) was over 10 µg/mL. The MIC ([4]; DSM 1088, 24 h) was 5 µg/mL (≈ 11.2 µM) and the MIC ([5]; DSM 11728, 24 h) was over 10 µg/mL.
`CC(C)=CC[C@H](O)[C@@H](C)[C@H]1CC[C@@]2(C)c3ccc4c(c3C[C@@H](O)[C@]12C)[C@@H](O)C[C@H](O)C4(C)C` showed an MIC ([1]; DSM 22644, 24 h) of 2 µg/mL (≈ 4.38 µM), an MIC ([2]; DSM 799, 24 h) of 5 µg/mL (≈ 10.9 µM) and an MIC ([3]; DSM 682, 24 h) of 5 µg/mL (≈ 10.9 µM). It also gave an MIC ([4]; DSM 1088, 24 h) of 2 µg/mL (≈ 4.38 µM) and an MIC ([5]; DSM 11728, 24 h) of 0.1 µg/mL (≈ 0.219 µM).
